Legend:
[1] = oral administration in mice; cited from earlier work
Rac = target: T1, Rac (Homo sapiens, UniProt P63000); settings: relative to NSC23766; cited from earlier work
T1 construct: host or cells: fibroblasts

Rac1 = target: T2, Rac1 (Homo sapiens, UniProt P63000); experiment: Rac Activation AlphaScreen Assay (Rac1 AS); type: biochemical; settings: AlphaLisa assay; read-out: IC50 inhibitory concentration versus wild type Rac1
T2 construct: His (N)
Description: The IC50 values reported in Tables 1-6 were obtained from the Rae Activation AlphaScreen Assay (Rac1 AS) assay described in subsection 2 under the section entitled “In Vitro Assays”. “†” represents an IC50 of greater than 100 uM; “††” represents an IC50 of greater than 10 uM and less than 50 uM; and “†††” represents an IC50 of less than 10 uM. “POC” means percent of control. […] Lower POC values reflect greater inhibition. “NT” means not tested.
2. Rac Activation AlphaScreen Assay (Rac1 AS)
AlphaScreen® assays were performed in 96-well microplates in a final reaction volume of 60 μL. Recombinant His-Rac1, recombinant GST-PBD (PAK Binding Domain), donor and acceptor beads (PerkinElmer), and inhibitors were incubated in exchange buffer (20 mM Tris pH 7.5, 50 mM NaCl, 1 mM MgCl2, 1 mM EDTA, 500 nM GTPyS (guanosine 5′-[Y-thio]triphosphate)) at 37° C. Readings were performed on a Tecan M1000 pro microplate reader after 1 hour. Data was analyzed using the GraphPad Prism software (GraphPad Software, Inc.), and IC50 (dose leading to 50% disruption of complex) was calculated from the dose-response curves.

[2] = target: T3, Rac-GEF Tiam-1 with Rac1 (G15A) (Homo sapiens, UniProt P63000, G15A); settings: MDA-MB-435 cells; similar concentrations (<5 mM); cited from earlier work
T3 construct: host or cells: MDA-MB-435

[3] = target: T4, Rac-GEF Vav2 with nucleotide-free Rac1 (G15A) (Homo sapiens, UniProt P63000, G15A); settings: MDA-MB-435 breast cancer cells; <5 mM; cited from earlier work
T4 construct: host or cells: MDA-MB-435

[4] = in vivo, cited from earlier work
[5] = tested on: animal models of estrogen positive and HER2 positive breast cancer, prostate cancer, melanoma and colorectal cancer; settings: single agent and in combination with standard of care; cited from earlier work

Row | SMILES | systemic exposure [1] | more efficient than NSC23766 as an inhibitor of Rac activity (Rac) | IC50 (Rac1) | association of the Rac-GEF Tiam-1 with Rac1 (G15A) [2] | association of the Rac-GEF Vav2 with nucleotide-free Rac1 (G15A) [3] | oral bioavailability ([4]; po) | plasma half-life [4] | activity against animal models of cancer [5]
1 | CCn1c2ccccc2c2cc(Nc3ccnc(NCCCN4CCOCC4)n3)ccc21 [EHop-016] | low systemic exposure | 100 fold | ~10 µM | does not affect | inhibits | – | – | –
2 | FC(F)(F)c1ccc2c(SCCCCCCn3cnc(CN4CCOCC4)c3)ccnc2c1 [GYS32661] | – | – | – | – | – | not orally bioavailable | relatively short | very good activity
